Assay results published in patent publication US20060183773A1, “Uses of methylphenidate derivatives” (priority 2005, published 2006).

How the values were obtained:
Type in all cases: cell-based, human
[1] = test system: NFκB; assay: Activated NFκB in TNFα- or VEGF-treated HIAECs, TransAM assay; conditions: TNFα + LY 294002, control 0.174, TNFα only 0.881
Procedure: (§1) Then, the amount of NFκB was determined using a TransAM™ NFκB p65/NFκB p50 Transcription Factor Assay Kit and a Nuclear Extract Kit from Active Motif North America, Carlsbad, Calif., according to the manufacturer's instructions. Briefly, a nuclear extract of the cells was prepared using the Nuclear Extract Kit. Then, the nuclear extract was added to the wells of the 96-well plate of the TransAM™ kit. Oligonucleotide containing an NFκB consensus binding site was immobilized in the wells, and the activated NFκB contained in the nuclear extract was bound to the oligonucleotide. Then, an antibody directed against the NFκB p65 or p50 subunit was added, and the NFκB complex bound to the oligonucleotide was detected. A secondary antibody conjugated to horseradish peroxidase (HRP) was next added to provide a colorimetric readout that was quantified by spectrophotometry (measurement at 450 nm).
Passage 8 (human iliac artery endothelial cells (HIAECs) (obtained from ATCC; catalog no. CC-2545) were grown to confluence in 25 cm^2 flasks in EGM-2 medium. Eighteen hours prior to the experiment, the medium was replaced with EGM-2 medium containing 0.1% FCS plus heparin, GA1000 (gentamycin) and bovine pituitary extract (all from Cambrex) to place the cells in a resting state. To perform the experiment the medium was aspirated from the flasks, and the following additives were added to the flasks in fresh medium (total volume of 5 ml/flask): 15 μg/ml of the compound of formula II (Cpd II) or 10 μM LY 294002. The flasks were incubated 2 hours at 37° C., 5% CO2 After this incubation, VEGF or TNFα was added to give a final concentration 10 ng/ml, and the flasks were incubated for an additional 30 minutes. Then, the amount of NFκB was determined using a TransAM™ NFκB p65/NFκB p50 Transcription Factor Assay Kit and a Nuclear Extract Kit from Active Motif North America, Carlsbad, Calif., as described in Example 9.

[2] = test system: NFκB; assay: Activated NFκB in VEGF-treated HUVECs, TransAM assay; conditions: VEGF 10 ng/ml + 10 μM, control 0.070, VEGF only 0.111
Procedure: Passage 5 HUVECs, human source lot number 8750 (obtained from ATCC), were grown to confluence in 25 cm^2 flasks in EGM-2 medium. The following additives were added to the flasks (total volume of 5 ml/flask) in EGM-2 medium containing 2% FCS, GA1000 (gentamycin), heparin and ascorbic acid (all from Cambrex): 1 μg/ml of the compound of formula II (Cpd II); 5 μg/ml Cpd II; 15 μg/ml of Cpd II; 15 μg/ml methylphenidate (MP); or 10 μM LY 294002. The flasks were incubated overnight at 37° C., 5% CO2 After this incubation, vascular endothelial growth factor (VEGF) (obtained from Sigma) was added to give a final concentration 10 ng/ml, and the flasks were incubated for an additional 30 minutes.
as §1

[3] = test system: IL-8; assay: IL-8 release by TNFα-stimulated HUVECs, ELISA; conditions: 10 ng/ml TNFα + 10 μM; 18 hours; TNFα + water 35572
Procedure: Passage 4 HUVECs, human source lot number 8710 (obtained from ATCC), were put into the wells of a 24-well tissue culture plate at 5,000 cells/well in EGM-2 medium (obtained from Cambrex) and cultured for 72 hours at 37° C. and 5% CO2. […] After incubation for 1 hour at 37° C. and 5% CO2, TNFα (obtained from Pierce) was added to give a final concentration of 10 ng/ml, and the cells were incubated for an additional 18 hours at 37° C. and 5% CO2. After this incubation, the supernatants were collected, and the amount of IL-8 in the supernatants determined by ELISA as described in Example 4.

[4] = test system: c-Jun; assay: c-Jun in VEGF-treated HUVECs, TransAM AP-1 assay; conditions: VEGF 10 ng/ml + 10 μM, control 0.204, VEGF only 0.261
Procedure: The flasks were incubated overnight at 37° C., 5% CO2 After this incubation, vascular endothelial growth factor (VEGF) (obtained from Sigma) was added to give a final concentration 10 ng/ml, and the flasks were incubated for an additional 30 minutes.
The amount of c-Jun was determined using a TransAM™ AP-1 Family Transcription Factor Assay Kit and a Nuclear Extract Kit from Active Motif North America, Carlsbad, Calif., according to manufacturer's instructions. Briefly, a nuclear extract of the cells was prepared using the Nuclear Extract Kit. Then, the nuclear extract was added to the wells of a 96-well plate in which oligonucleotide containing a TPA-responsive element (TRE) was immobilized. Activator protein-1 (AP-1) dimers contained in the nuclear extract were bound to this oligonucleotide and were detected using an antibody specific for c-Jun. A secondary antibody conjugated to horseradish peroxidase (HRP) was next added to provide a colorimetric readout that was quantified by spectrophotometry (measurement at 450 nm).

[5] = test system: IL-8; assay: IL-8 release from LPS-stimulated THP-1 monocytes, ELISA; conditions: THP-1, LPS 200 ng/ml, Cpd II 15 μg/ml, Dex 10 μM
Procedure: (§2) THP-1 is a monocyte cell line obtained from American Type Culture Collection (ATCC) (catalog no. TIB-202). […] After 1 hour, lipopolysaccharide (LPS) (obtained from Sigma) was added to the cultures to give a final concentration of 200 ng/ml, and the cells were then incubated for an additional 4 hours or for an additional 24 hours. After the incubation, the cells were centrifuged, and the supernatants were collected. The concentrations of IL-8 and TNFα in the supernatants were determined by ELISA.
The concentrations of IL-8 in the supernatants were determined by ELISA performed as described in Example 4.

[6] = test system: TNFα; assay: TNFα release from LPS-stimulated THP-1 monocytes, ELISA; conditions: THP-1, LPS 200 ng/ml, 24 hours; Cpd II 15 μg/ml, Dex 10 μM; LPS alone 138.655
Procedure: as §2
The TNFα ELISA was performed as described in Example 2.

[7] = test system: TCR-positive cells; assay: Annexin staining of TCR-positive PBL, flow cytometry (cell death); conditions: PHA 5 μg/ml plus 10 μM dexamethasone; printed as decreased from 84%
Procedure: After this incubation, PHA was added to give a final concentration of 5 μg/ml, and the cells were incubated for an additional 72 hours at 37° C., 5% CO2. All cultures were performed in triplicate. Cells were then removed by centrifugation at 1000 rpm for 10 minutes.
The cells were further analyzed by flow cytometry. Annexin was used to determine populations of dead or dying cells. Anti-CD69 antibody was used to establish the level of cellular activation. Antibody to T-cell receptor αβ (TCR) was also used. Recombinant Annexin 5 (PE and FITC conjugates) and the antibodies were all purchase from Caltag (Burlingham, Calif.) and used following the manufacturer's recommendations.

Row | Compound | Mean OD 450 nm (NFκB) [1] | Mean OD 450 nm (NFκB) [2] | Mean IL-8 [3] [pg/mL] | Mean OD 450 nm (c-Jun) [4] | % Inhibition (IL-8) ([5]; 4 hours) [%] | % Inhibition (IL-8) ([5]; 24 hours) [%] | Mean IL-8 Concentration ([5]; 24 hours, LPS alone 6653.20) [pg/mL] | Mean TNFα Concentration [6] [pg/mL] | Annexin staining of TCR-positive cells [7] [%]
1 | O=c1cc(N2CCOCC2)oc2c(-c3ccccc3)cccc12 [LY 294002, reference compound] | 0.810 ± 0.007 | 0.138 ± 0.008 | 9196.1 ± 150.97 | 0.340 ± 0.020 |  |  |  |  | 
2 | C[C@@H]1C[C@H]2[C@@H]3CCC4=CC(=O)C=C[C@]4(C)[C@@]3(F)[C@@H](O)C[C@]2(C)[C@@]1(O)C(=O)CO [dexamethasone, reference compound] |  |  |  |  | 26 | 66 | 2300.00 ± 283.41 | 94.759 ± 8.755 | 48
